Counter-ions that a name gives are not always drawn.
Experiments:
Assay type in all cases: cell-based
[1] = test system: human acute myeloid leukemia cell line MV-4-11; assay: Cytostatic activity on leukemia cell line MV-4-11 (WST-1); details: Homo sapiens, MV4-11; 10 μmol/L, 72 hours, MV-4-11 cells; read-out: cytostatic rate MV-4-11 (%) (10 μmol/L)
How it was run: (§1)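 Cells in RPMI 1640/10% FBS were pre-cultured 4 h, then exposed to test compound at 10 μmol/L (0.1% DMSO) for 72 h at 37 °C. WST-1 read at 450 nm (690 nm reference); cytostatic rate = 100 − growth relative to DMSO control (100%) and medium blank (0%).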

[2] = test system: human acute myeloid leukemia cell line ML-1; assay: Cytostatic activity on leukemia cell line ML-1 (WST-1); details: Homo sapiens, ML1; 10 μmol/L, 72 hours, ML-1 cells; read-out: cytostatic rate ML-1 (%) (10 μmol/L)
How it was run: as §1

[3] = test system: human chronic myeloid leukemia cell line K562; assay: Cytostatic activity on leukemia cell line K562 (WST-1); details: Homo sapiens; 10 μmol/L, 72 hours, K562 cells; read-out: cytostatic rate K562 (%) (10 μmol/L)
How it was run: as §1

[4] = test system: human colon cancer cell line Colo205; assay: Cytostatic activity on solid carcinoma cell line Colo205 (WST-1); details: Homo sapiens, COLO 205; 10 μmol/L, 72 hours, Colo205 cells; read-out: cytostatic rate Colo205 (%) (10 μmol/L)
How it was run: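 Colo205 cells in RPMI 1640 with 10% FBS were pre-cultured 24 h, then exposed to compound at 10 μmol/L final (0.1% DMSO) for 72 h at 37° C. WST-1 was added for 2 h and A450 (ref 690 nm) read. Cytostatic rate = 100 − relative growth, with DMSO control set at 100% and medium blank at 0%.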

Row | Structure (SMILES) | inhibition at 10 µM [1] [%] | inhibition at 10 µM [2] [%] | inhibition at 10 µM [3] [%] | inhibition at 10 µM [4] [%]
1 | COCCN1CCN(C(=O)c2ccc(/C=C/c3n[nH]c4ccccc34)cc2)CC1=O [Compound 134, (E)-4-{4-[2-(1H-indazol-3-yl)vinyl]benzoyl}-1-(2-methoxyethyl)piperazin-2-one hydrochloride] | 100 | 88 | 91 | 91
2 | CC(C)N1CCN(C(=O)c2ccc(/C=C/c3n[nH]c4ccccc34)cc2)CC1 [Compound 107, (E)-1-{4-[2-(1H-indazol-3-yl)vinyl]benzoyl}-4-isopropylpiperazine hydrochloride] | 98 | 77 | 91 | 84
3 | O=CN1CCN(C(=O)c2ccc(/C=C/c3n[nH]c4ccccc34)cc2)CC1 [Compound 19, (E)-4-{4-[2-(1H-indazol-3-yl)vinyl]benzoyl}piperazine-1-carbaldehyde] | 97 | 89 | 78 | 89
4 | O=C(c1ccc(/C=C/c2n[nH]c3ccccc23)cc1)N1CCC(N2CCOCC2)CC1 [Compound 106, (E)-1-{4-[2-(1H-indazol-3-yl)vinyl]benzoyl}-4-morpholinopiperidine] | 98 | 58 | 35 | 37
5 | CC(C)(C)C(=O)N1CCN(C(=O)c2ccc(/C=C/c3n[nH]c4ccccc34)cc2)CC1 [Compound 40, (E)-1-{4-[2-(1H-indazol-3-yl)vinyl]benzoyl}-4-(pivaloyl)piperazine] | 98 | 67 | 96 | 88
6 | CN1CCCC1C(=O)N1CCN(C(=O)c2ccc(/C=C/c3n[nH]c4ccccc34)cc2)CC1 (stereo not drawn) [Compound 145, (E)-4-[(1-methylpyrrolidin-2-yl)carbonyl]-1-{4-[2-(1H-indazol-3-yl)vinyl]benzoyl}piperazine] | 99 | 85 | 94 | 92

Reference: patent US7919517B2, “Indazole derivatives” (Kyowa Hakko Kirin Co., Ltd., priority 2003, dated 2011)
